Experimental data taken from PMC2760403 (The Journal of organic chemistry, 2009).

What was measured:
Assay type in all cases: biochemical
[1] = target: M. tuberculosis Riboflavin Synthase (Mycobacterium tuberculosis, UniProt P9WK35); assay: Riboflavin synthase kinetic inhibition assay; details: recombinant M. tuberculosis RS; for kcat (rate constant ES → E + P): fit of the compound's data set; for kcat (rate constant ES → E + P) / Kis (inhibitor dissociation constant, ES + I ⇌ ESI): pH 7.0
[2] = target: M. tuberculosis Lumazine Synthase (Mycobacterium tuberculosis, UniProt P9WHE9); details: recombinant M. tuberculosis LS; for kcat (rate constant ES → E + P): fit of the compound's data set; for kcat (rate constant ES → E + P) / Kis (inhibitor dissociation constant, ES + I ⇌ ESI): pH 7.0; for Kis (inhibitor dissociation constant, ES + I ⇌ ESI): substrate 1 varied, 2 constant
[3] = target: T1, S. pombe Lumazine Synthase (Schizosaccharomyces pombe, UniProt Q9UUB1); assay: Lumazine synthase kinetic inhibition assay; details: recombinant S. pombe LS; for kcat (rate constant ES → E + P): fit of the compound's data set; for kcat (rate constant ES → E + P) / Kis (inhibitor dissociation constant, ES + I ⇌ ESI): pH 7.0; for Kis (inhibitor dissociation constant, ES + I ⇌ ESI): substrate 1 varied, 2 constant
T1 sequence (Q9UUB1 1-159): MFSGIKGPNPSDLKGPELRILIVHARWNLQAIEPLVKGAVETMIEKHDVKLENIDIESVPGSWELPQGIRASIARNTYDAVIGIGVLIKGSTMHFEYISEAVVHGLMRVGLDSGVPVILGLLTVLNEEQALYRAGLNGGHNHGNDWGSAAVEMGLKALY

[4] = target: E. coli Riboflavin Synthase (Escherichia coli, UniProt P0AFU8); assay: Riboflavin synthase kinetic inhibition assay; details: recombinant E. coli RS; for kcat (rate constant ES → E + P): fit of the compound's data set; for kcat (rate constant ES → E + P) / Kis (inhibitor dissociation constant, ES + I ⇌ ESI): pH 7.0
E. coli Riboflavin Synthase, sequence (P0AFU8 whole entry): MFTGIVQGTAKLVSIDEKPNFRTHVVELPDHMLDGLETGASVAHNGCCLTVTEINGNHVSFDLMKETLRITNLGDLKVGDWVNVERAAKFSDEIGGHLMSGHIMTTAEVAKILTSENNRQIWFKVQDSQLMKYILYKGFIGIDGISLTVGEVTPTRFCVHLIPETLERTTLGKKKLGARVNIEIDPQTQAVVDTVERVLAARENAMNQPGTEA

M. tuberculosis Riboflavin Synthase, sequence (P9WK35 whole entry): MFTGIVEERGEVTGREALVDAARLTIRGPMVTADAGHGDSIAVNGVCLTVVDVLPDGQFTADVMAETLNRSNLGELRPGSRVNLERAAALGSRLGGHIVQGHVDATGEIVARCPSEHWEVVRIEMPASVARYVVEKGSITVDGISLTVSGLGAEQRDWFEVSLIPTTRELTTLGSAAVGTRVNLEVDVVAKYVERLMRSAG
M. tuberculosis Lumazine Synthase, sequence (P9WHE9 whole entry): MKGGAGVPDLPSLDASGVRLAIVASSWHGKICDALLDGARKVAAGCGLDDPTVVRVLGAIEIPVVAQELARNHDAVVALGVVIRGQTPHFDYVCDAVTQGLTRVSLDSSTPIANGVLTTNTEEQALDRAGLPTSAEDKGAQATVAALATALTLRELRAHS

## O=c1[nH]c(/C=C/c2ccccc2O)c([N+](=O)[O-])c(=O)[nH]1 [Compound 9, (E)-5-Nitro-6-(2-hydroxystyryl)pyrimidine-2,4(1H,3H)-dione]
[1]
  Mode of inhibition: Uncompetitive
  kcat (rate constant ES → E + P): 0.0683 ± 0.0033 s⁻¹
  Kis (inhibitor dissociation constant, ES + I ⇌ ESI): 917 ± 212 µM
[2]
  Mode of inhibition: Competitive
  kcat (rate constant ES → E + P): 0.00433 ± 0.00017 s⁻¹
[3]
  Mode of inhibition: Competitive
  kcat (rate constant ES → E + P): 0.023 ± 0.0005 s⁻¹

## O=c1[nH]c(/C=C/c2cccc(O)c2)c([N+](=O)[O-])c(=O)[nH]1 [Compound 15, (E)-6-(3-Hydroxystyryl)-5-nitropyrimidine-2,4(1H,3H)-dione]
[2]
  Mode of inhibition: Competitive
  kcat (rate constant ES → E + P): 0.00383 ± 0.00017 s⁻¹
[4]
  Inhibitory activity in words: completely ineffective
[3]
  Inhibitory activity in words: completely ineffective

## O=c1[nH]c(/C=C/c2ccc(O)cc2)c([N+](=O)[O-])c(=O)[nH]1 [Compound 16, (E)-6-(4-Hydroxystyryl)-5-nitropyrimidine-2,4(1H,3H)-dione]
[2]
  Mode of inhibition: Partial
  kcat (rate constant ES → E + P): 0.00717 ± 0.00017 s⁻¹
  Kis (inhibitor dissociation constant, ES + I ⇌ ESI): 17 ± 5 µM
[4]
  Inhibitory activity in words: completely ineffective
[3]
  Inhibitory activity in words: completely ineffective

## O=c1[nH]c(/C=C/c2cccc(O)c2O)c([N+](=O)[O-])c(=O)[nH]1 [Compound 17, (E)-6-(2,3-Dihydroxystyryl)-5-nitropyrimidine-2,4(1H,3H)-dione]
[1]
  Mode of inhibition: Partial
  kcat (rate constant ES → E + P): 0.0045 ± 0.00033 s⁻¹
  Kis (inhibitor dissociation constant, ES + I ⇌ ESI): 37 ± 16 µM
[2]
  Mode of inhibition: Mixed
  kcat (rate constant ES → E + P): 0.006 ± 0.00017 s⁻¹
  Kis (inhibitor dissociation constant, ES + I ⇌ ESI): 81 ± 29 µM
[4]
  Mode of inhibition: Mixed
  kcat (rate constant ES → E + P): 0.085 ± 0.0017 s⁻¹
  Kis (inhibitor dissociation constant, ES + I ⇌ ESI): 26 ± 4 µM
[3]
  Mode of inhibition: Partial
  kcat (rate constant ES → E + P): 0.0262 ± 0.00033 s⁻¹
  Kis (inhibitor dissociation constant, ES + I ⇌ ESI): 16 ± 3 µM

## O=c1[nH]c(/C=C/c2cc(O)ccc2O)c([N+](=O)[O-])c(=O)[nH]1 [Compound 18, (E)-6-(2,5-Dihydroxystyryl)-5-nitropyrimidine-2,4(1H,3H)-dione]
[1]
  Mode of inhibition: Uncompetitive
  kcat (rate constant ES → E + P): 0.00367 ± 0.00033 s⁻¹
  Kis (inhibitor dissociation constant, ES + I ⇌ ESI): 398 ± 156 µM
[2]
  Mode of inhibition: Uncompetitive
  kcat (rate constant ES → E + P): 0.00283 ± 0.00017 s⁻¹
  Kis (inhibitor dissociation constant, ES + I ⇌ ESI): 420 ± 168 µM
[4]
  Mode of inhibition: Uncompetitive
  kcat (rate constant ES → E + P): 0.085 ± 0.0017 s⁻¹
  Kis (inhibitor dissociation constant, ES + I ⇌ ESI): 122 ± 10 µM
[3]
  Mode of inhibition: Uncompetitive
  kcat (rate constant ES → E + P): 0.0245 ± 0.00067 s⁻¹
  Kis (inhibitor dissociation constant, ES + I ⇌ ESI): 53 ± 5 µM

## O=c1[nH]c(/C=C/c2ccc(F)cc2)c([N+](=O)[O-])c(=O)[nH]1 [Compound 29, (E)-6-(4-Fluorostyryl)-5-nitropyrimidine-2,4(1H,3H)-dione]
[1]
  Mode of inhibition: Mixed
  kcat (rate constant ES → E + P): 0.00667 ± 0.00017 s⁻¹
  Kis (inhibitor dissociation constant, ES + I ⇌ ESI): 776 ± 294 µM
[2]
  Mode of inhibition: Mixed
  kcat (rate constant ES → E + P): 0.0065 ± 0.00033 s⁻¹
  Kis (inhibitor dissociation constant, ES + I ⇌ ESI): 25 ± 8 µM

## O=c1[nH]c(/C=C/c2cc([N+](=O)[O-])ccc2O)c([N+](=O)[O-])c(=O)[nH]1 [Compound 32, (E)-6-(2-Hydroxy-5-nitrostyryl)-5-nitropyrimidine-2,4(1H,3H)-dione]
[1]
  Mode of inhibition: Uncompetitive
  kcat (rate constant ES → E + P): 0.00783 ± 0.00017 s⁻¹
  Kis (inhibitor dissociation constant, ES + I ⇌ ESI): 800 ± 107 µM
[2]
  Mode of inhibition: Competitive
  kcat (rate constant ES → E + P): 0.0107 ± 0.0005 s⁻¹

## O=c1[nH]c(/C=C/c2ccc([N+](=O)[O-])c(O)c2)c([N+](=O)[O-])c(=O)[nH]1 [Compound 35, (E)-6-(3-Hydroxy-4-nitrostyryl)-5-nitropyrimidine-2,4(1H,3H)-dione]
[2]
  Mode of inhibition: Competitive
  kcat (rate constant ES → E + P): 0.00633 ± 0.00017 s⁻¹
[4]
  Mode of inhibition: Uncompetitive
  kcat (rate constant ES → E + P): 0.0717 ± 0.0017 s⁻¹
  Kis (inhibitor dissociation constant, ES + I ⇌ ESI): 224 ± 22 µM
[3]
  Mode of inhibition: Mixed
  kcat (rate constant ES → E + P): 0.0188 ± 0.00017 s⁻¹
  Kis (inhibitor dissociation constant, ES + I ⇌ ESI): 497 ± 159 µM

## O=c1[nH]c(/C=C/c2ccc[nH]2)c([N+](=O)[O-])c(=O)[nH]1 [Compound 40, (E)-5-Nitro-6-[2-(1H-pyrrol-2-yl)vinyl]pyrimidine-2,4(1H,3H)-dione]
[2]
  Mode of inhibition: Partial
  kcat (rate constant ES → E + P): 0.00633 ± 0.00017 s⁻¹
  Kis (inhibitor dissociation constant, ES + I ⇌ ESI): 42 ± 12 µM
[4]
  Mode of inhibition: Mixed
  kcat (rate constant ES → E + P): 0.06 ± 0.0017 s⁻¹
  Kis (inhibitor dissociation constant, ES + I ⇌ ESI): 806 ± 401 µM
[3]
  Mode of inhibition: Mixed
  kcat (rate constant ES → E + P): 0.0173 ± 0.00017 s⁻¹
  Kis (inhibitor dissociation constant, ES + I ⇌ ESI): 248 ± 67 µM

## O=c1[nH]c(/C=C/c2ccc3ccccc3c2)c([N+](=O)[O-])c(=O)[nH]1 [Compound 43, (E)-6-(2-(Naphthalene-2-yl)vinyl)-5-nitropyrimidine-2,4(1H,3H)-dione]
[2]
  Mode of inhibition: Partial
  kcat (rate constant ES → E + P): 0.00617 ± 0.00017 s⁻¹
  Kis (inhibitor dissociation constant, ES + I ⇌ ESI): 72 ± 31 µM
[4]
  Mode of inhibition: Uncompetitive
  kcat (rate constant ES → E + P): 0.0553 ± 0.00083 s⁻¹
  Kis (inhibitor dissociation constant, ES + I ⇌ ESI): 270 ± 32 µM
[3]
  Mode of inhibition: Mixed
  kcat (rate constant ES → E + P): 0.043 ± 0.00033 s⁻¹
  Kis (inhibitor dissociation constant, ES + I ⇌ ESI): 476 ± 89 µM

## O=c1[nH]c(/C=C/C2C=Nc3ccccc32)c([N+](=O)[O-])c(=O)[nH]1 (centres unmarked) [Compound 44, (E)-6-(2-(3H-Indol-3-yl)vinyl)-5-nitropyrimidine-2,4(1H,3H)-dione]
[2]
  Mode of inhibition: Mixed
  kcat (rate constant ES → E + P): 0.00667 ± 0.00017 s⁻¹
  Kis (inhibitor dissociation constant, ES + I ⇌ ESI): 488 ± 233 µM
[4]
  Mode of inhibition: Uncompetitive
  kcat (rate constant ES → E + P): 0.0567 ± 0.00067 s⁻¹
  Kis (inhibitor dissociation constant, ES + I ⇌ ESI): 426 ± 64 µM
[3]
  Mode of inhibition: Mixed
  kcat (rate constant ES → E + P): 0.0327 ± 0.00067 s⁻¹
  Kis (inhibitor dissociation constant, ES + I ⇌ ESI): 376 ± 127 µM

## O=c1[nH]c(CCc2ccc(O)cc2)c([N+](=O)[O-])c(=O)[nH]1 [Compound 48, 6-(4-Hydroxy-2-phenethyl)-5-nitropyrimidine-2,4(1H,3H)-dione]
[1]
  Mode of inhibition: Uncompetitive
  kcat (rate constant ES → E + P): 0.00567 ± 0.00017 s⁻¹
  Kis (inhibitor dissociation constant, ES + I ⇌ ESI): 449 ± 45 µM
